{
  "source": "patent US20130224151A1",
  "about": "“Use of FAAH Inhibitors for Treating Abdominal, Visceral and Pelvic Pain” (UNITED STATES OF AMERICA, priority 2010, published 2013)",
  "tested_on": "FAAH substrates (AEA, OEA, and PEA)",
  "experiment": "Brain and GI tissue fatty acid amide levels in cortagine-induced visceral hypersensitive rats (LC-MS/MS)",
  "type": "in vivo, rat",
  "experimental": "Rats were treated with the FAAH inhibitor URB597 [3′-(aminocarbonyl) biphenyl-3-yl cyclohexylcarbamate](3 mg/kg, SC route) or vehicle (DMSO/cremophor/isotonic saline (1:1:8 v:v:v), PO route) in the cortagine-induced visceral hypersensitivity model as described in Example 3. Briefly Male Sprague-Dawley rats were habituated to Bollman cages for 3 days. The following day, rats were anesthetized with isoflurane and a 5 cm balloon pressure sensor was inserted into the distal colon 1 cm from the anus. After 20 min, a first colorectal distension (CRD) baseline was performed (10, 20, 40, 60 mmHg, 20 s duration, 4 min inter-stimulus) and the visceromotor response (VMR) assessed. After the first CRD, rats were treated with URB597 (3 mg/kg in vehicle, SC route) or vehicle (DMSO/cremophor/isotonic saline (1:1:8 v:v:v), PO route). Two hours later, rats were treated with cortagine (10 μg/kg in vehicle, IP route). After 15 min, a second CRD was performed.\nThirty min after the second CRD, rats were anesthetized with isoflurane, decapitated, and brains were collected rapidly, placed on sheets of aluminum foil sitting on dry ice to flash freeze. A 5 cm-long segment of jejunum and a 5 cm-long segment of ascending colon were collected, split open, dipped in ice-cold physiological saline to rinse away intestinal contents, placed on aluminum foil on top of dry ice to flash freeze. Then, brains, jejunum and ascending colon were placed in separate labeled Falcon tubes, respectively, and stored at −80° C.\nOn each experimental day, one naive untreated rat (n=6 total) (not treated with test compounds, not treated with cortagine and not subjected to CRD assay), kept in normal housing and handling conditions was also euthanized and its brain, jejunum and ascending colon collected as described above. The other rats were euthanized by CO2 inhalation followed by thoracotomy.\nLevels of the endocannabinoids N-arachidonoyl-ethanolamide (AEA, anandamide), N-oleoyl-ethanolamide (OEA) and N-palmitoyl-ethanolamide (PEA) in the brain, jejunum and ascending colon were measured by LC-MS/MS.\nThe fatty acid amides were extracted from the samples and standards by modifications of the method described in Richardson et al, Analytical Biochemistry, 2007, 360: 216-226, as described below.\nIntestine samples were removed from the −80° C. freezer and placed on dry ice. Each intestine sample was weighed in a clean, tared 50 mL polypropylene BD Falcon tube and placed on wet ice after recording the weight. Using a glass pipette, 7 mL of (room temp.) 9:1 ethyl acetate:hexane were added to each intestine. Then, 2.5 μL of 5 μg/mL of IS (12.5 ng, prepared as indicated below) was added to each intestine sample. One conical container was removed at a time from the wet ice and homogenized until the tissue was uniformly minced. Using a homogenizer probe, the contents were homogenized for 30 seconds; 3 mL of water were added to each intestine sample, then homogenized for an additional 15 seconds. The homogenizer probe was rinsed with water between samples and with water and 70% EtOH between dose groups. The homogenates were vortexed for ˜5 sec then centrifuged at […], 3500 rpm for 20 minutes. The ethyl acetate layer (top layer) was recovered and placed in 15 mL glass tubes. The solvent was evaporated under nitrogen (TurboVap, 55° C.) until dry and the tissue extracts were reconstituted in 0.25 mL of 1:3 CHCl3:MeOH. Then the glass tubes were placed in a 37° C. shaking water bath for 5 min and vortexed again to re-suspend them. The samples were transferred to Eppendorf tubes and centrifuged (at room temp) at 13,000 rpm for 3 min. Then, 75 μL of each sample and standard was transferred to a 96 deep well plate on wet ice, and the remaining supernatant was stored at −80° C. The samples and standards were diluted to 1:1 using a multi-channel pipette by adding 75 μL of 100 ng/mL d-4-AEA in ice-cold methanol and pipetting up and down to mix. […]",
  "key": {"[1]": {"conditions": "URB597 3 mg/kg SC, first trial, Student's t test"}},
  "data": [
    {"smiles": "NC(=O)c1cccc(-c2cccc(OC(=O)NC3CCCCC3)c2)c1", "note": "[URB597, 3′-(aminocarbonyl) biphenyl-3-yl cyclohexyl carbamate, reference compound]", "values": [
      {"measurement": "levels of AEA, OEA and PEA in the brain, ascending colon and jejunum", "setting": "URB597 3 mg/kg SC single administration, cortagine-induced visceral hypersensitive rats, first trial, 3 mg/kg", "value": "elevated levels of the three FAAH substrates"},
      {"measurement": "levels of AEA and PEA in the jejunum", "setting": "[1]", "value": "statistically different from those in the naïve rats"},
      {"measurement": "levels of AEA, OEA, and PEA in the ascending colon versus vehicle treated and naïve rats", "setting": "[1]", "value": "statistically different from those in the vehicle treated and naïve rats"},
      {"measurement": "levels of AEA, OEA, and PEA in the brain versus vehicle treated and naïve rats", "setting": "[1]", "value": "statistically different from those in the vehicle treated and naïve rats"},
      {"measurement": "levels of OEA in the jejunum", "setting": "[1]", "value": "statistically different from those in the vehicle treated and naïve rats"},
      {"measurement": "levels of AEA, OEA and PEA in the brain, ascending colon and jejunum", "setting": "second trial, URB597 3 mg/kg SC + cortagine 10 ug/kg IP", "value": "elevated levels of the three FAAH substrates"}
    ]}
  ]
}
